In publication doi:10.1101/2023.11.24.568596v1 (biorxiv, 2023):
Blank lines part the entries; values can stand above or below the compound they belong to.

Tests used:
Details in all cases: binder
[1] = target: T1, MARK4 (Homo sapiens, UniProt Q96L34)
T1 sequence (Q96L34 1-752): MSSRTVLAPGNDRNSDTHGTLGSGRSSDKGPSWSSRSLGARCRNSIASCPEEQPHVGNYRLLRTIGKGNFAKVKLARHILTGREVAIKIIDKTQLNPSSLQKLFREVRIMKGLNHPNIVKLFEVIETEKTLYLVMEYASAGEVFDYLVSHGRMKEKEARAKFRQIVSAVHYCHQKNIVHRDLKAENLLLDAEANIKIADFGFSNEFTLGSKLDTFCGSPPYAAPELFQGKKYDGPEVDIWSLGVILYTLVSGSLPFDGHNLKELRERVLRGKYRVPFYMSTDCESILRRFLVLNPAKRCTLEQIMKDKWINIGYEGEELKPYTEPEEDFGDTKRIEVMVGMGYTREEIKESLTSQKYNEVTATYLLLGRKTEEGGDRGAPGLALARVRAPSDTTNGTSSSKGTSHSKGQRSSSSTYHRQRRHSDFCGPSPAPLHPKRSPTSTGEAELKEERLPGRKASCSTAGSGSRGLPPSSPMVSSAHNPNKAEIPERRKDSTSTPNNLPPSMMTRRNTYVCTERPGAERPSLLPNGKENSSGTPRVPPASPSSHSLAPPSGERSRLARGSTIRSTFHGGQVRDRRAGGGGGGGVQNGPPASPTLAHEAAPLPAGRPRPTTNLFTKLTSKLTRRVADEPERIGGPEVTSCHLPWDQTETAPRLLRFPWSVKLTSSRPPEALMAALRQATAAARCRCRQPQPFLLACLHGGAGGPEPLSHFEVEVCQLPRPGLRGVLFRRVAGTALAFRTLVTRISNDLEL

[2] = target: T2, BRPF1 (Homo sapiens, UniProt P55201)
T2 sequence (P55201 1-1214): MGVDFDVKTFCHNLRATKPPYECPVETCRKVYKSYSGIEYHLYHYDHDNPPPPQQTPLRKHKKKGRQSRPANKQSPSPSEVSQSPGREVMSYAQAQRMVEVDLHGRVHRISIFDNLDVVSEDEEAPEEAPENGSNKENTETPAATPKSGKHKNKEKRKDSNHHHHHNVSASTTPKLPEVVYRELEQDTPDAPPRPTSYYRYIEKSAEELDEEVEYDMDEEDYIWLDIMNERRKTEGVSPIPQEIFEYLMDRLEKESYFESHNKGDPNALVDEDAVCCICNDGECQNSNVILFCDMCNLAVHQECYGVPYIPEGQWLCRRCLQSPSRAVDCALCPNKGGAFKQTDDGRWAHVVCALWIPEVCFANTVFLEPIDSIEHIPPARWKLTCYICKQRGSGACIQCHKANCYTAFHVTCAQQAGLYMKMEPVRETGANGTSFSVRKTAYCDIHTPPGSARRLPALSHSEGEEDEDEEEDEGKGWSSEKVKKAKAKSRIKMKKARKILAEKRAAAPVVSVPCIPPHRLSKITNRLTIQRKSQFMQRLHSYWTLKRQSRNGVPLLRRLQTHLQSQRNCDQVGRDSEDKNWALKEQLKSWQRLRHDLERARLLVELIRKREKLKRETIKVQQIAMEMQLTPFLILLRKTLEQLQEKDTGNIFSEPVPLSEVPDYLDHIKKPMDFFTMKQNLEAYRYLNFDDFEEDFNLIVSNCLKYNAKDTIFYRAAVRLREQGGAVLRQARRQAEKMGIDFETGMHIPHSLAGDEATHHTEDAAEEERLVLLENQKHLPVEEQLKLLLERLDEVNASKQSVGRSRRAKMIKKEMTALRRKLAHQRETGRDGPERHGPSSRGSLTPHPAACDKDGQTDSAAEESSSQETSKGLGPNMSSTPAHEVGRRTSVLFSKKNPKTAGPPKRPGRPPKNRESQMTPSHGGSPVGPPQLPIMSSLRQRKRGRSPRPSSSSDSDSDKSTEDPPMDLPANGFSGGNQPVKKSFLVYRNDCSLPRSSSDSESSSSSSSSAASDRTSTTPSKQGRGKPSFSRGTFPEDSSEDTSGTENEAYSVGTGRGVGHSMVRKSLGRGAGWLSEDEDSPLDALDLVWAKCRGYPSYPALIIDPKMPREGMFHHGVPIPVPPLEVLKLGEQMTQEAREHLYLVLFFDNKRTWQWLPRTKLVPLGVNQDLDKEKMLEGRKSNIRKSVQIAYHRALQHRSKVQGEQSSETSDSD

[3] = target: CDKL1 (Homo sapiens, UniProt Q00532)
Chain of CDKL1 (Q00532 whole entry): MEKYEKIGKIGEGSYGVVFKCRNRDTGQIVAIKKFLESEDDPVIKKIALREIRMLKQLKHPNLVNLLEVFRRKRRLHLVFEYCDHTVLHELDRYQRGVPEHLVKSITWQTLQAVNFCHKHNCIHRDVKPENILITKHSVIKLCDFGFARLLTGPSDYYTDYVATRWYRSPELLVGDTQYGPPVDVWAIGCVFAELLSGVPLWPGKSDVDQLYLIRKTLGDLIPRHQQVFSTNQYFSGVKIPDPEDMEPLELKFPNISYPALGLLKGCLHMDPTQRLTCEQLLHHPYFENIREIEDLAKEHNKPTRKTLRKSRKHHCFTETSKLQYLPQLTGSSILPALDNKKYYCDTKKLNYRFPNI

[4] = target: AAK1 (Homo sapiens, UniProt Q2M2I8)
Chain of AAK1 (Q2M2I8 whole entry): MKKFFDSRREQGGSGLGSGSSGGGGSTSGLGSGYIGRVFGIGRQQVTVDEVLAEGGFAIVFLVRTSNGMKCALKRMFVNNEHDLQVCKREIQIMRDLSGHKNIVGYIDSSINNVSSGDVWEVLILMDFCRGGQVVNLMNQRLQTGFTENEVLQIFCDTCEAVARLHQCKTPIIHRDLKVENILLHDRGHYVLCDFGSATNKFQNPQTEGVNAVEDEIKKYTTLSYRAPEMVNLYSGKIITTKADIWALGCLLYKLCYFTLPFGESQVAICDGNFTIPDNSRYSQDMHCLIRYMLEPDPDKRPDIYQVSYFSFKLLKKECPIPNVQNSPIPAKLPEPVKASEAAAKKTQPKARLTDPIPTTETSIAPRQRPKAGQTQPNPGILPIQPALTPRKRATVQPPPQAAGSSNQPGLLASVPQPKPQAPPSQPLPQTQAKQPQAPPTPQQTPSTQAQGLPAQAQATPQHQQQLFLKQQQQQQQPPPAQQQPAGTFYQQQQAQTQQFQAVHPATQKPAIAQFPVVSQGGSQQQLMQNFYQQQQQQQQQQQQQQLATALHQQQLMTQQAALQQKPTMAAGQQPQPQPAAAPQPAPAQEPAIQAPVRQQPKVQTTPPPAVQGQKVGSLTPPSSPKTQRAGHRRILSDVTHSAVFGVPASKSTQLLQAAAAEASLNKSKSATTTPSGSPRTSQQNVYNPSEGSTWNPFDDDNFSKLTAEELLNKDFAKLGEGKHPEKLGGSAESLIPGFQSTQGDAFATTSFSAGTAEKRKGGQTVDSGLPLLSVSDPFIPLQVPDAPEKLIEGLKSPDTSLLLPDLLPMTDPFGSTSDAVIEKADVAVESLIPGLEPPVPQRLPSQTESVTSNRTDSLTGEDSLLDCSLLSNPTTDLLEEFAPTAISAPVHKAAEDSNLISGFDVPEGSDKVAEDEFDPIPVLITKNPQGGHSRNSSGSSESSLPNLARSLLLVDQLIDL

[5] = target: T3, MST2 (Homo sapiens, UniProt Q13188)
T3 sequence (Q13188 1-491): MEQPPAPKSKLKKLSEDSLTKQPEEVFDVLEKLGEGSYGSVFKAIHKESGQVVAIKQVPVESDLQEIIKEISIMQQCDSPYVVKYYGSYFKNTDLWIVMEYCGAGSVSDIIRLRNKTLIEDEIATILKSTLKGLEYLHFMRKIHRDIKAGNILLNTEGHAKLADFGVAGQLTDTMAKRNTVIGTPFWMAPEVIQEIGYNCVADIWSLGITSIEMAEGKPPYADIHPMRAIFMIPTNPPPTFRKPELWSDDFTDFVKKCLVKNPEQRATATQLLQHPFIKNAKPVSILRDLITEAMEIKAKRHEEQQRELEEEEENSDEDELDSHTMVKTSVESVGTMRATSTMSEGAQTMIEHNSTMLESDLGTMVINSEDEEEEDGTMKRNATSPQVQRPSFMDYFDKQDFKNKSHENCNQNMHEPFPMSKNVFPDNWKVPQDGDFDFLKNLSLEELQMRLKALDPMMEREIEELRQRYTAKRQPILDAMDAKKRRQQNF

[6] = target: MST4 (Homo sapiens, UniProt Q9P289)
Chain of MST4 (Q9P289 whole entry): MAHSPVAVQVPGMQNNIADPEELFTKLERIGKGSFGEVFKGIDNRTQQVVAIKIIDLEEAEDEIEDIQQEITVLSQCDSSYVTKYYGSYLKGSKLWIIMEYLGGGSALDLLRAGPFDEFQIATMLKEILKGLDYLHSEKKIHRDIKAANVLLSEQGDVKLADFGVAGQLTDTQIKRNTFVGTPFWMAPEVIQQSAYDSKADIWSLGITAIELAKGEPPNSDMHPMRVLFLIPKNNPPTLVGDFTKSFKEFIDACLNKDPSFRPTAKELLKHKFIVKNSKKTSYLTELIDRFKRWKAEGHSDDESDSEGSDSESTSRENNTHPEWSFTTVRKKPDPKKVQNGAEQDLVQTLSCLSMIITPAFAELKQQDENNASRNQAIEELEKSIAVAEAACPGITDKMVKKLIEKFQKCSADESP

ΔTm MR30 (27) [1]: 3.8 °C | ΔTm MR30 (27) [2]: -1.8 °C | ΔTm MR30 (27) [3]: 0.9 °C | ΔTm MR30 (27) [4]: -0.5 °C | ΔTm MR30 (27) [5]: 5.9 °C | ΔTm MR30 (27) [6]: 7.9 °C
Structure (SMILES): Cc1cccc(-c2ccc(-c3cc4cnc(NCCCN5CCCC5=O)nc4n(CCCCN)c3=O)c(Cl)c2)n1 [compound 27, MR30]

ΔTm 28 [1]: 2.2 °C | ΔTm 28 [2]: -1.6 °C | ΔTm 28 [3]: 0.7 °C | ΔTm 28 [4]: -0.1 °C | ΔTm 28 [5]: 10.1 °C | ΔTm 28 [6]: 8.8 °C
Structure (SMILES): Cc1cccc(-c2ccc(-c3cc4cnc(Nc5cc(C(F)(F)F)ccc5C)nc4n(CCCCN)c3=O)c(Cl)c2)n1 [compound 28, 8-(4-Aminobutyl)-6-(2-chloro-4-(6-methylpyridin-2-yl)phenyl)-2-((2-methyl-5-(trifluoromethyl)phenyl)amino)pyrido[2,3-d]pyrimidin-7(8H)-one]

ΔTm 29 [1]: 4.8 °C | ΔTm 29 [2]: -1.2 °C | ΔTm 29 [3]: 0.5 °C | ΔTm 29 [4]: 0.0 °C | ΔTm 29 [5]: 9.1 °C | ΔTm 29 [6]: 10.2 °C
Structure (SMILES): Cc1cccc(-c2ccc(-c3cc4cnc(NCCCN5CCNCC5)nc4n(CCCCN)c3=O)c(Cl)c2)n1 [compound 29, 8-(4-Aminobutyl)-6-(2-chloro-4-(6-methylpyridin-2-yl)phenyl)-2-((3-(piperazin-1-yl)propyl)amino)pyrido[2,3-d]pyrimidin-7(8H)-one]

ΔTm 30 [1]: 9.5 °C | ΔTm 30 [2]: -4.4 °C | ΔTm 30 [3]: 1.6 °C | ΔTm 30 [4]: 4.1 °C | ΔTm 30 [5]: 15.0 °C | ΔTm 30 [6]: 15.3 °C
Structure (SMILES): Cc1cccc(-c2ccc(-c3cc4cnc(Nc5ccc(CCCO)cc5)nc4n(CCCCN)c3=O)c(Cl)c2)n1 [compound 30, 8-(4-Aminobutyl)-6-(2-chloro-4-(6-methylpyridin-2-yl)phenyl)-2-((4-(3-hydroxypropyl)phenyl)amino)pyrido[2,3-d]pyrimidin-7(8H)-one]

ΔTm 31 [1]: 10.4 °C | ΔTm 31 [2]: -3.4 °C | ΔTm 31 [3]: 2.1 °C | ΔTm 31 [4]: 4.0 °C | ΔTm 31 [5]: 14.3 °C | ΔTm 31 [6]: 14.7 °C
Structure (SMILES): Cc1cccc(-c2ccc(-c3cc4cnc(Nc5ccc(O)cc5)nc4n(CCCCN)c3=O)c(Cl)c2)n1 [compound 31, 8-(4-Aminobutyl)-6-(2-chloro-4-(6-methylpyridin-2-yl)phenyl)-2-((4-hydroxyphenyl)amino) pyrido[2,3-d]pyrimidin-7(8H)-one]

ΔTm 32 [1]: 9.9 °C | ΔTm 32 [2]: -1.4 °C | ΔTm 32 [3]: 1.9 °C | ΔTm 32 [4]: 4.0 °C | ΔTm 32 [5]: 14.7 °C | ΔTm 32 [6]: 15.5 °C
Structure (SMILES): Cc1cccc(-c2ccc(-c3cc4cnc(Nc5ccc(C)c(O)c5)nc4n(CCCCN)c3=O)c(Cl)c2)n1 [compound 32, 8-(4-Aminobutyl)-6-(2-chloro-4-(6-methylpyridin-2-yl)phenyl)-2-((3-hydroxy-4-methylphenyl)amino)pyrido[2,3-d]pyrimidin-7(8H)-one]
